From patent US20140171510A1, “HO[…] AND/OR CONJUGATES OF AMPHETAMINE AND OTHER […] PROCESSES FOR MAKING AND USING THE SAME” (priority 2011, published 2014)

What was measured:
[1] = Intravenous study in rats, plasma d-amphetamine by ELISA (Example 8); details: for % Tmax: relative to d-amp; for Tmax: d-amphetamine in plasma, […] equivalent
[2] = Single-dose crossover oral PK study of hArg-Amp-2HCl and Lys-Amp in humans (Example 10); details: for AUC0-24 h of d-amphetamine: fasted, Vyvanse 30 mg (d-amphetamine equivalent dosages); for plasma concentrations of intact prodrug: 25 mg hArg-Amp-2HCl or same molar dose, lower limit of quantitation 1.00 ng/mL
[3] = Oral PK of hArg-Amp-2HCl and Lys-Amp in dogs (Example 9)
[4] = Oral PK of hArg-Amp-2HCl and Lys-Amp in rats (Example 9); details: for AUC0-24 h of d-amphetamine: equimolar doses (hArg-Amp-2HCl […], Lys-Amp 5.05 mg/kg)
[5] = Average results of oral studies in rats (Table 3); format: in vivo; details: for % Tmax: average of oral studies in rats, relative to Lys-Amp
[6] = Oral gavage PK study of hArg-Amp vs Lys-Amp in rats, plasma d-amphetamine by ELISA (Example 6); details: relative to Lys-Amp
[7] = Intranasal study in rats, plasma d-amphetamine by ELISA (Example 7); details: for % Tmax: relative to d-amp
[8] = pH of the prodrug in deionized water at various concentrations; format: physicochemical
From the text: In a preferred embodiment, the homoarginine amphetamine prodrug comprises a dihydrochloride salt of homoarginine amphetamine. The pH of this prodrug in deionized water at various concentrations is as follows: […]

[9] = Parenteral (intranasal, intravenous) administration in rats, release of amphetamine (Example 1); details: parental routes (intranasal, intravenous)
[10] = oral solution, hArg-Amp-2HCl 25 mg
[11] = oral solution, hArg-Amp-2HCl 25 mg, Vyvanse 30 mg
[12] = equimolar doses (1.5 and 1.8 mg/kg)
[13] = oral solution, equimolar doses (4.20 and 5.05 mg/kg)

Compound	% Tmax [1] [%]	AUC0-24 h of d-amphetamine [2, 10] [ng·h/mL]	Cmax of d-amphetamine [2, 11] [ng/mL]	Tmax of intact prodrug [2, 11] [min]	AUC0-24 h of intact prodrug [4, 13] [ng·h/mL]	Cmax of d-amphetamine [4, 13] [ng/mL]	Cmax of intact prodrug [4, 13] [ng/mL]	AUC0-24 h of d-amphetamine ([4]; oral solution) [ng·h/mL]	% Tmax [5]	% Tmax [6] [%]	% Tmax [7] [%]	Tmax [1] [m]	other results
l-lysine-d-amphetamine [Lys-Amp, reference compound]	100	421.9	30.0	36.6	74.9	71.5	90.2	596.4	100%	100	3600	–	AUC0-24 h of intact prodrug [2, 11]: 19.4 ng·h/mL; Cmax of intact prodrug [2, 11]: 18.1 ng/mL; AUC0-24 h of intact prodrug [3, 12]: 285.8 ng·h/mL; Cmax of d-amphetamine [3, 12]: 95.4 ng/mL; Cmax of intact prodrug [3, 12]: 305.5 ng/mL; AUC0-24 h of d-amphetamine ([3]; equimolar doses (hArg-Amp-2HCl […], Lys-Amp 1.8 mg/kg)): 775.0 ng·h/mL
C[C@@H](Cc1ccccc1)NC(=O)[C@@H](N)CCCCN=C(N)N.Cl.Cl [hArg-Amp-2HCl, l-homoarginine-d-amphetamine dihydrochloride]	–	282.7	20.7	0	1.8	43.2	3.1	447.2	–	–	–	–	Tmax of d-amphetamine, hArg-Amp-2HCl/Lys-Amp ([2]; oral): 110.5%; Tmax of intact prodrug, hArg-Amp-2HCl/Lys-Amp ([2]; oral): 0%; Tmax of d-amphetamine, hArg-Amp-2HCl/Lys-Amp ([4]; oral): 150.0%; Tmax of intact prodrug, hArg-Amp-2HCl/Lys-Amp ([4]; oral): 100.0%^; Tmax of intact prodrug [4, 13]: 15 min; pH ([8]; 0.1 mg/mL (0.3 mM) in deionized water): 6.15 ± 0.1; pH ([8]; 1.0 mg/mL ([…]) in deionized water): 5.40 ± 0.1; pH ([8]; 10 mg/mL (26.4 mM) in deionized water): 4.35 ± 0.1; pH ([8]; 100 mg/mL (264.3 mM) in deionized water): 3.30 ± 0.1
C[C@H](N)Cc1ccccc1 [d-amp, d-amphetamine]	100	–	–	–	–	–	–	–	–	–	100	5	Tmax ([7]; d-amphetamine in plasma, […] equivalent, given in minutes): 5 m
l-homoarginine-d-amphetamine [hArg-Amp]	100	–	–	–	–	–	–	–	200-400%	133	600	5	Tmax of d-amphetamine [2, 11]: approximately three hours; plasma concentrations of intact prodrug ([2]; oral, listed as homoarginine amphetamine prodrug): ≤ 1.00 ng/mL; plasma concentrations of intact prodrug ([2]; oral, listed as homoarginine-amphetamine prodrug): below the detectable limit; period over which amphetamine is eliminated after the maximum plasma concentration ([2]; single oral dose of 25 mg): about 45 hours; release of amphetamine [9]: < 25%; Tmax ([5]; average of oral studies in rats (n = 30 per compound)): 120 to 240 min
